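Values below derive from 48-hour exposures of cells grown in 96-well plates, with endpoints linearly interpolated between the two concentrations bracketing the appropriate inhibition level. TGI: concentration producing complete growth inhibition.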
Experiments:
Assay in all cases: growth of human tumour cells (NCI), 48 h
HCT-116 colon = system: HCT-116 colon
NCI-H23 lung = system: NCI-H23 lung
SF-539 CNS = system: SF-539 CNS
OVCAR-3 ovarian = system: OVCAR-3 ovarian
SF-268 CNS = system: SF-268 CNS
NCI/ADR-RES ovarian = system: NCI/ADR-RES ovarian
A549 NSCLC = system: A549 NSCLC
RPMI-8226 leukemia = system: RPMI-8226 leukemia
SR leukemia = system: SR leukemia
HS 578T breast = system: HS 578T breast
U251 CNS = system: U251 CNS
OVCAR-8 ovarian = system: OVCAR-8 ovarian
COLO 205 colon = system: COLO 205 colon
786-0 renal = system: 786-0 renal
TK-10 renal = system: TK-10 renal
NCI-H460 lung = system: NCI-H460 lung
T-47D breast = system: T-47D breast
SK-OV-3 ovarian = system: SK-OV-3 ovarian
NCI-H522 lung = system: NCI-H522 lung
HL-60(TB) leukemia = system: HL-60(TB) leukemia
K-562 leukemia = system: K-562 leukemia
UO-31 renal = system: UO-31 renal
LOX IMVI melanoma = system: LOX IMVI melanoma
HCC-2998 colon = system: HCC-2998 colon
IGROV1 ovarian = system: IGROV1 ovarian
SW-620 colon = system: SW-620 colon
SF-295 CNS = system: SF-295 CNS
SN12C renal = system: SN12C renal
CCRF-CEM leukemia = system: CCRF-CEM leukemia
OVCAR-5 ovarian = system: OVCAR-5 ovarian
MOLT-4 leukemia = system: MOLT-4 leukemia
M14 melanoma = system: M14 melanoma
CAKI-1 renal = system: CAKI-1 renal
KM12 colon = system: KM12 colon
ACHN renal = system: ACHN renal
UACC-257 melanoma = system: UACC-257 melanoma
SNB-75 CNS = system: SNB-75 CNS
OVCAR-4 ovarian = system: OVCAR-4 ovarian
SK-MEL-2 melanoma = system: SK-MEL-2 melanoma
HOP-92 NSCLC = system: HOP-92 NSCLC
DU-145 prostate = system: DU-145 prostate
SNB-19 CNS = system: SNB-19 CNS
MDA-MB-435 = system: MDA-MB-435
UACC-62 melanoma = system: UACC-62 melanoma
A498 renal = system: A498 renal
SK-MEL-28 melanoma = system: SK-MEL-28 melanoma
HCT-15 colon = system: HCT-15 colon
MDA-N = system: MDA-N
EKVX NSCLC = system: EKVX NSCLC
MDA-MB-231 breast = system: MDA-MB-231 breast
MALME-3M melanoma = system: MALME-3M melanoma
MCF7 breast = system: MCF7 breast
HT29 colon = system: HT29 colon
NCI-H226 lung = system: NCI-H226 lung
BT-549 breast = system: BT-549 breast
RXF 393 renal = system: RXF 393 renal

## COC(=O)CCCC(=O)NC1=C(Nc2ccccc2)C(=O)c2ccccc2C1=O
HCT-116 colon
  TGI: 32.7 µM
NCI-H23 lung
  TGI: 29.6 µM
SF-539 CNS
  TGI: 35 µM
OVCAR-3 ovarian
  TGI: 38 µM
SF-268 CNS
  TGI: 96.3 µM
NCI/ADR-RES ovarian
  TGI: 56 µM
A549 NSCLC
  TGI: 36.8 µM
RPMI-8226 leukemia
  TGI: 59.7 µM
SR leukemia
  TGI: > 100 µM
HS 578T breast
  TGI: 84.4 µM
U251 CNS
  TGI: 29.3 µM
OVCAR-8 ovarian
  TGI: > 100 µM
COLO 205 colon
  TGI: 35.7 µM
786-0 renal
  TGI: 33.5 µM
TK-10 renal
  TGI: 49.7 µM
NCI-H460 lung
  TGI: 33.7 µM
T-47D breast
  TGI: 64.8 µM
SK-OV-3 ovarian
  TGI: 53.4 µM
NCI-H522 lung
  TGI: 35.3 µM
HL-60(TB) leukemia
  TGI: 49.7 µM
K-562 leukemia
  TGI: 47.3 µM
UO-31 renal
  TGI: 46.1 µM
LOX IMVI melanoma
  TGI: 41.6 µM
HCC-2998 colon
  TGI: 29.5 µM
IGROV1 ovarian
  TGI: 30.2 µM
SW-620 colon
  TGI: 52.4 µM
SF-295 CNS
  TGI: 33 µM
SN12C renal
  TGI: 45.1 µM
CCRF-CEM leukemia
  TGI: 76.2 µM
OVCAR-5 ovarian
  TGI: 30.7 µM
MOLT-4 leukemia
  TGI: 45.5 µM
M14 melanoma
  TGI: 29.6 µM
CAKI-1 renal
  TGI: 44 µM
KM12 colon
  TGI: 20.2 µM
ACHN renal
  TGI: 62.2 µM
UACC-257 melanoma
  TGI: 26.4 µM
SNB-75 CNS
  TGI: 33.8 µM
OVCAR-4 ovarian
  TGI: 37.1 µM
SK-MEL-2 melanoma
  TGI: 34.2 µM
HOP-92 NSCLC
  TGI: 73.6 µM
DU-145 prostate
  TGI: 29.4 µM
SNB-19 CNS
  TGI: 34.6 µM
MDA-MB-435
  TGI: 17.4 µM
UACC-62 melanoma
  TGI: 11.9 µM
A498 renal
  TGI: 32.5 µM
SK-MEL-28 melanoma
  TGI: 30.3 µM
HCT-15 colon
  TGI: 41.1 µM
MDA-N
  TGI: 15 µM
EKVX NSCLC
  TGI: 49.7 µM
MDA-MB-231 breast
  TGI: 43.8 µM
MALME-3M melanoma
  TGI: 12.9 µM
MCF7 breast
  TGI: 32.1 µM

## CCOc1ncn(-c2ccc(NC(=S)Nc3cnccn3)cc2)n1
NCI-H23 lung
  TGI: > 10 µM
SF-539 CNS
  TGI: > 10 µM
OVCAR-3 ovarian
  TGI: > 10 µM
SF-268 CNS
  TGI: > 10 µM
NCI/ADR-RES ovarian
  TGI: > 10 µM
A549 NSCLC
  TGI: > 10 µM
SR leukemia
  TGI: > 10 µM
HS 578T breast
  TGI: > 10 µM
U251 CNS
  TGI: > 10 µM
OVCAR-8 ovarian
  TGI: > 10 µM
786-0 renal
  TGI: > 10 µM
TK-10 renal
  TGI: > 10 µM
NCI-H460 lung
  TGI: > 10 µM
T-47D breast
  TGI: > 10 µM
SK-OV-3 ovarian
  TGI: > 10 µM
NCI-H522 lung
  TGI: > 10 µM
HT29 colon
  TGI: > 10 µM
HL-60(TB) leukemia
  TGI: > 10 µM
K-562 leukemia
  TGI: > 10 µM
UO-31 renal
  TGI: > 10 µM
IGROV1 ovarian
  TGI: > 10 µM
SF-295 CNS
  TGI: > 10 µM
SN12C renal
  TGI: > 10 µM
CCRF-CEM leukemia
  TGI: > 10 µM
OVCAR-5 ovarian
  TGI: > 10 µM
MOLT-4 leukemia
  TGI: > 10 µM
M14 melanoma
  TGI: > 10 µM
KM12 colon
  TGI: > 10 µM
ACHN renal
  TGI: > 10 µM
UACC-257 melanoma
  TGI: > 10 µM
SNB-75 CNS
  TGI: > 10 µM
OVCAR-4 ovarian
  TGI: > 10 µM
SK-MEL-2 melanoma
  TGI: > 10 µM
HOP-92 NSCLC
  TGI: > 10 µM
DU-145 prostate
  TGI: > 10 µM
NCI-H226 lung
  TGI: > 10 µM
BT-549 breast
  TGI: > 10 µM
SNB-19 CNS
  TGI: > 10 µM
MDA-MB-435
  TGI: > 10 µM
UACC-62 melanoma
  TGI: > 10 µM
HCT-15 colon
  TGI: > 10 µM
MDA-N
  TGI: > 10 µM
EKVX NSCLC
  TGI: > 10 µM
MDA-MB-231 breast
  TGI: > 10 µM
MALME-3M melanoma
  TGI: > 10 µM
RXF 393 renal
  TGI: > 10 µM
MCF7 breast
  TGI: > 10 µM

Reference: PubChem BioAssay (NCI)
